# In US7598397B2, “Sulfonamide peri-substituted bicyclics for occlusive artery disease” (deCODE genetics ehf, priority 2004, dated 2009):
# Target: T1, prostanoid EP3 receptors (Homo sapiens, UniProt P43115)
# T1 sequence (P43115 1-390): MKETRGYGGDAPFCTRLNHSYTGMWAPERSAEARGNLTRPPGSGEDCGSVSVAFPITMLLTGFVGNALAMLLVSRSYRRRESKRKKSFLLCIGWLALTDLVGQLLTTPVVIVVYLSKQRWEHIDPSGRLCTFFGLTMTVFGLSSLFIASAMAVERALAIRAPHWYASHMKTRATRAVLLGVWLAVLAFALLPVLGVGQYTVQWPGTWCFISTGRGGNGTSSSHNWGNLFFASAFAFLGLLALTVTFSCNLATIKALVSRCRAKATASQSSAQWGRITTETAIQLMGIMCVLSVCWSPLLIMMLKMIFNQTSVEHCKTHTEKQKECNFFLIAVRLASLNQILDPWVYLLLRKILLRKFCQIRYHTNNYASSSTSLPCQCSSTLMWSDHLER
# Experiment: binding on prostanoid EP3 receptors (method of Abramovitz et al.)
# Conditions: read-out: Activity (EP3 receptor binding, IC50 class)
# Experimental: The compounds of the invention were assayed for their binding on prostanoid EP3 receptors according to the method of Abramovitz et al. [Bioch. Biophys.
row,Structure (SMILES),IC50 [nM]
1,O=C(COc1cccc2[nH]cc(Sc3nc4ccccc4o3)c12)NS(=O)(=O)c1cc(Cl)c(Cl)s1 [Compound P181],< 1000
2,O=C(COc1cccc2[nH]cc(Sc3nc4ccccc4s3)c12)NS(=O)(=O)c1cc(Cl)c(Cl)s1 [Compound P182],< 1000
3,O=C(COc1cccc2[nH]cc(Sc3ccc4ccccc4c3)c12)NS(=O)(=O)c1ccccc1Cl [Compound P183],< 1000
4,O=C(COc1cccc2[nH]cc(Sc3ccc4ccccc4c3)c12)NS(=O)(=O)c1cccc(Cl)c1 [Compound P184],< 1000
5,O=C(COc1cccc2[nH]cc(S(=O)(=O)c3ccc4ccccc4c3)c12)NS(=O)(=O)c1cccc(Cl)c1 [Compound P192],< 1000
6,COc1ccc(S(=O)(=O)NC(=O)COc2cccc3[nH]cc(S(=O)(=O)c4ccc5ccccc5c4)c23)cc1 [Compound P193],< 1000
7,Cn1c(Sc2c[nH]c3cccc(OCC(=O)NS(=O)(=O)c4cc(Cl)c(Cl)s4)c23)nc2ccccc21 [Compound P195],< 1000
8,COc1ccc(Sc2c[nH]c3cccc(OCC(=O)NS(=O)(=O)c4cc(Cl)c(Cl)s4)c23)cc1 [Compound P200],< 1000
9,O=C(COc1cccc2[nH]cc(S(=O)(=O)c3ccc(Cl)c(Cl)c3)c12)NS(=O)(=O)c1cc(Cl)c(Cl)s1 [Compound P204],< 1000
10,O=C(COc1cccc2[nH]cc(Sc3ccc(Cl)cc3Cl)c12)NS(=O)(=O)c1cc(Cl)c(Cl)s1 [Compound P205],< 1000
11,O=C(COc1cccc2[nH]cc(Sc3ccc(F)c(F)c3)c12)NS(=O)(=O)c1cc(Cl)c(Cl)s1 [Compound P209],< 1000
12,COc1ccc(S(=O)(=O)c2c[nH]c3cccc(OCC(=O)NS(=O)(=O)c4cc(Cl)c(Cl)s4)c23)cc1 [Compound P210],< 1000
13,O=C(COc1cccc2[nH]cc(Sc3ncccn3)c12)NS(=O)(=O)c1cc(Cl)c(Cl)s1 [Compound P211],< 1000
14,COc1ccccc1Sc1c[nH]c2cccc(OCC(=O)NS(=O)(=O)c3cc(Cl)c(Cl)s3)c12 [Compound P212],< 1000
15,O=C(COc1cccc2[nH]cc(Sc3ccccc3Cl)c12)NS(=O)(=O)c1cc(Cl)c(Cl)s1 [Compound P213],< 1000
16,O=C(C=Cc1cccc2c1N(Cc1ccc(Cl)cc1Cl)C(=O)C2(F)F)NS(=O)(=O)c1cccs1 [Compound P216],< 1000
17,O=C(C=Cc1cccc2c1N(Cc1ccc3ccccc3c1)C(=O)C2)NS(=O)(=O)c1cccs1 [Compound P217],< 1000
18,O=C(C=Cc1cccc2c1N(Cc1ccc3ccccc3c1)C(=O)C2(F)F)NS(=O)(=O)c1cccs1 [Compound P218],< 1000
19,O=C(COc1cccc2[nH]cc(Sc3ccc4ccccc4c3)c12)NS(=O)(=O)c1ccc(F)cc1 [Compound P225],< 1000
20,O=C(COc1cccc2[nH]cc(Sc3ccc4ccccc4c3)c12)NS(=O)(=O)c1cc(F)c(F)cc1F [Compound P226],< 1000
21,Cn1nnnc1Sc1c[nH]c2cccc(OCC(=O)NS(=O)(=O)c3cc(Cl)c(Cl)s3)c12 [Compound P227],< 1000
22,CN1C(=O)C(Sc2ccc3ccccc3c2)c2c(OCC(=O)NS(=O)(=O)c3cc(Cl)c(Cl)s3)cccc21 (stereo not shown) [Compound P229],< 1000
23,Cc1nnc(Sc2c[nH]c3cccc(OCC(=O)NS(=O)(=O)c4cc(Cl)c(Cl)s4)c23)s1 [Compound P230],< 1000
24,CC(=O)Nc1ccc(Sc2c[nH]c3cccc(OCC(=O)NS(=O)(=O)c4cc(Cl)c(Cl)s4)c23)cc1 [Compound P233],< 1000
25,O=C(COc1cccc2[nH]cc(S(=O)(=O)c3ccc(F)cc3Cl)c12)NS(=O)(=O)c1cc(Cl)c(Cl)s1 [Compound P234],< 1000
26,CC(=O)Nc1ccc(S(=O)(=O)c2c[nH]c3cccc(OCC(=O)NS(=O)(=O)c4cc(Cl)c(Cl)s4)c23)cc1 [Compound P235],< 1000
27,O=C(COc1cccc2[nH]cc(S(=O)(=O)c3ccc4ccccc4c3)c12)NS(=O)(=O)c1ccc(F)cc1 [Compound P236],< 1000
28,O=C(COc1cccc2[nH]cc(S(=O)(=O)c3ccc4ccccc4c3)c12)NS(=O)(=O)c1cc(F)c(F)cc1F [Compound P237],< 1000
